The values that follow come from patent US6256527A, “Method for determining oxygen concentration” (Nycomed Imaging AS, priority 1995, dated 2001).

Common to all, as to format: physicochemical
Data set [1] is described as follows: ESR line widths of nitroxides in degassed benzene. An excerpt: The ESR-spectral properties of a series of partially and fully deuterated nitroxides (compounds 3b-d) also useful in the method of the invention have been investigated. These radicals are derived from 2,5-di-t-butyl-3,4-dimethoxycarbonyl-pyrryloxyl (Compound 3a) and were investigated alongside Tempone (4-oxo-2,2,6,6-tetramethyl-piperidine-1-oxyl, 1) and CTPO (3-carbamoyl-2,2,5,5-tetramethyl-pyrroline-1-yloxyl, 2a) which are typical examples of nitroxides frequently used for imaging purposes.
Instrumentation. The ESR-spectra were recorded by the Upgrade Version ESP 3220-200SH of a Bruker ER-200D SRC instrument at 22°. The radical concentration was in the range 0.1-0.2 mM and the modulation amplitude was 10 mG. The microwave power was well below saturation. NMR-spectra were recorded on a Varian XL-300 spectrometer. Mass spectra were recorded on a VG Quattor II instrument equipped with ESPC electrospray. GLC analyses were performed on a HP 5830 ser II instrument, equipped with a fused-silica column (30 m, 0.25 μm, HP-1701). TLC analyses and column chromotographic separations were performed on Silica Gel 60, using heptane/ether as the eluent.
Preparation of pyrryloxyl radicals. To a degassed solution of 2 mg of the hydroxylamine 7a-7d in 2 ml of benzene was added ca. 10 mg NiOOH. After 5 min the suspension was filtered and the pale green blue solution was diluted with degassed benzene in order to obtain a solution suitable for ESR.
ESR-measurements. Summarised in Table 5 are the ESR line widths for the nitroxides discussed above. […] Perdeuteration results in a reduction of the line width by a factor of 2.2 for 1 and of 2.5 for 2b. […] The spin density distributions, nitrogen coupling constants and intrinsic line widths for 3d are compared in Table 6 to other nitroxides.

Data set [2] in a line: ESR linewidth of trityl radicals (synthesis examples). Particulars: singlet.
Data set [3] is described as follows: Overhauser enhancement of trityl radicals (synthesis examples). The settings on record: H2 O, 6.9 mM, 0.012 W microwave power.
Data set [4] in a line: Relaxivity from NMRD profiles in water, plasma and blood. Particulars: for Relaxivity: water. As to the method:
(§1) The following four water soluble, single ESR line trityls were investigated by NMRD, Dynamic Nuclear Polarisation (DNP) and ESR (Examples 1-4).
(§2) The relaxivity and DNP enhancement data were measured in water, plasma and blood at 23° C. and 37° C. The results are set out in Tables 1 and 2.

Data set [5] in a line: DNP (Overhauser) enhancement and DNP-curve relaxivity at infinite concentration and power. The settings on record: for A. (enhancement at infinite concentration and power): water.
Text: The calibration data are generated by determining Overhauser enhancement values for the radical in the selected body fluid, at the selected temperature and at a range of oxygen (and preferably also radical) concentrations. The intrinsic esr relaxation times for the radical can be determined, under the same conditions, using a conventional esr spectrometer equipped with a temperature controller, with oxygen concentration being determined using the method of Ravin et al J. Appl. Physiol. 18:784-790(1964), a method known to produce accurate and reproducible results.
as §1, §2

Data set [6] in a line: Electron spin relaxation rates (radical concentration dependent) from CW ESR spectra and DNP data. The method, then:
as §1
Electron spin relaxation rates were measured by analysis of CW ESR spectra and DNP data at 23° C. and 37° C. in water, isotonic saline, plasma and blood for the deuterated hydroxy trityl and in water and isotonic saline for the perdeuterated and symmetric trityl.

Data set [7] can be described thus: Oxygen sensitivity at 260 MHz by ESR and DNP in water and blood. Particulars: for Lorentzian line broadening by oxygen: 260 MHz. As to the method: The oxygen sensitivity of the deuterated hydroxy trityl was examined at 260 MHz in water and blood at 23° C. and 37° C. by ESR and DNP. The desired oxygen partial pressures were obtained in a simple shaking tonometer. The sample of 1-2 ml volume was shaken with a water saturated gas mixture flowing slowly above the sample for 5 min. The sample and gas was in a water bath maintaining the temperature. The gas mixtures were of high purity, chemically analysed. The Lorentzian line broadenings are 511 and 369 mG/mMo2 in water at 37° C. and 23° C. respectively and 329 mG/mMo2 in blood at 23° C.

Where [8] appears, read: water (isotonic saline), 23° C.
The mark [9] stands for this setting: water (isotonic saline), 37° C.

Regarding `CC1(C)CC(=O)CC(C)(C)N1[O]` [Compound 1, 4-oxo-2,2,6,6-tetramethyl-piperidine-1-oxyl, reference compound], the “ESR Line width” value in data set [1] (benzene, 23° C.) was determined as 602 mg. Moreover, in data set [1] (degassed benzene, 22° C.), the “reduction of the line width by perdeuteration (factor)” value was 2.2.
For the compound `[2H]C([2H])([2H])C1(C([2H])([2H])[2H])N([O])C(C([2H])([2H])[2H])(C([2H])([2H])[2H])C([2H])([2H])C(=O)C1([2H])[2H]` [Compound 1-d16, 4-oxo-2,2,6,6-tetramethyl-piperidine-d16-1-oxyl, reference compound], in data set [1] (benzene, 23° C.), the “ESR Line width” value is 266 mg.
Take `CC1(C)C=C(C(=O)O)C(C)(C)N1[O]` [Compound 2b, 2,2,5,5-tetramethyl-3-pyrrolin-1-oxyl-3-carboxylic acid, reference compound]: the “ESR Line width” value in data set [1] (benzene, 23° C.) is 1032 mg. For the same compound, in data set [1] (degassed benzene, 22° C.), the “reduction of the line width by perdeuteration (factor)” value is 2.5.
Consider `[2H]C1=C(C(=O)O)C(C([2H])([2H])[2H])(C([2H])([2H])[2H])N([O])C1(C([2H])([2H])[2H])C([2H])([2H])[2H]` [Compound 2b-d13, 2,2,5,5-tetramethyl-3-pyrrolin-d13-oxyl-3-carboxylic acid, reference compound], for which, in data set [1] (benzene, 23° C.), the “ESR Line width” value worked out at 407 mg.
Take `COC(=O)c1c(C(=O)OC)c(C(C)(C)C)n([O])c1C(C)(C)C` [Compound 3a, 2,5-di-t-butyl-3,4-dimethoxycarbonyl-pyrryloxyl]: in data set [1] (benzene, 23° C.), the “ESR Line width” value was 228 mg.
With `[2H]C([2H])([2H])OC(=O)c1c(C(=O)OC([2H])([2H])[2H])c(C(C)(C)C)n([O])c1C(C)(C)C` [Compound 3b], the “ESR Line width” value in data set [1] (benzene, 23° C.) was determined as 172 mg.
With `[2H]C([2H])([2H])C(c1c(C(=O)OC)c(C(=O)OC)c(C(C([2H])([2H])[2H])(C([2H])([2H])[2H])C([2H])([2H])[2H])n1[O])(C([2H])([2H])[2H])C([2H])([2H])[2H]` [Compound 3c], in data set [1] (benzene, 23° C.), the “ESR Line width” value stood at 219 mg. Further, the “influence of deuteration of the t-butyl groups alone on line width, 3a:3c” value in data set [1] (degassed benzene, 22° C.) is listed as “almost no influence”.
For `[2H]C([2H])([2H])OC(=O)c1c(C(=O)OC([2H])([2H])[2H])c(C(C([2H])([2H])[2H])(C([2H])([2H])[2H])C([2H])([2H])[2H])n([O])c1C(C([2H])([2H])[2H])(C([2H])([2H])[2H])C([2H])([2H])[2H]` [Compound 3d], the “ESR Line width” value in data set [1] (benzene, 23° C.) came to 113 mg; in data set [1] (degassed benzene, 22° C., high dilution) it was 113 mg. For the same compound, the “decrease of line width by deuteration of the alkyl groups of the ester moiety, 3c:3d (factor)” value in data set [1] (degassed benzene, 22° C.) stood at 1.9. Further, the nitrogen coupling constant in data set [1] (in benzene) is on record as 4.4 G.
Turning to `CC(C)(C)c1c(C(=O)O)c(C(=O)O)c(C(C)(C)C)n1O` [Compound 4, 2.5-di-t-butyl-N-hydroxy-pyrrol-3,4-dicarboxylic acid], the “ESR line width compared with 3b” value in data set [1] (upon treatment with NiOOH) is “almost identical to that of 3b”.
For “Bis(8-ethoxycarbonyl-2,2,6,6-tetra(hydroxymethyl)benzo[1,2-d: 4,5-d']bis(1,3)dithiol-4-yl)-mono(8-ethoxycarbonyl-2,2,6,6-tetramethylbenzo[1,2-d:4,5-d']-bis(1,3)dioxol-4-yl))methyl [Example 26]”, the ESR Line width in data set [2] (H2 O, 200 G) came out at 433 mg.
As for “Bis-(8-potassium carboxylate-2,2,6,6-tetramethylbenzo [1,2-d:4 5-d']-bis(1,3)dithiol-4-yl)-mono-(8-potassium carboxylate-2,2,6,6-tetramethylbenzo[1,2-d:4,5-d']-bis (1,3)dioxol-4-yl)methyl [Example 20]”, the ESR Line width in data set [2] (H2 O, 200 G) stood at 105 mg. Also, the Overhauser enhancement in data set [3] worked out at 219.
For the compound “Bis-(8-sodium carboxylate-2,2,6,6-tetrakis-(hydroxy-^2 H2 -methyl)-benzo[1,2-d:4,5-d']-bis(1,3) dithiole-4-yl)-mono-(8-sodium carboxylate-2,2,6,6-tetramethylbenzo [1,2-d:4,5-d']-bis(1,3) dioxole-4-yl)methyl [deuterated hydroxy trityl]”, the “Relaxivity at 400kHz” value was determined as 0.53 mM⁻¹ s⁻¹ in data set [4] (blood, 23° C.); 0.44 mM⁻¹ s⁻¹ in data set [4] (blood, 37° C.); 0.48 mM⁻¹ s⁻¹ in data set [4] (plasma, 23° C.); 0.45 mM⁻¹ s⁻¹ in data set [4] (plasma, 37° C.). Also, the Relaxivity in data set [4] (23° C.) worked out at 0.26 mM⁻¹ s⁻¹; in data set [4] (37° C.) it was 0.20 mM⁻¹ s⁻¹. Also, in data set [5] (blood sample, 37° C.), the “T1 i.e. proton relaxivity” value stood at 0.44 mM⁻¹ s⁻¹. The “maximum Overhauser enhancement (i.e. at infinite VHF power and infinite radical concentration)” value in data set [5] (blood sample, 37° C.) turned out to be 192. Besides, the “A. (infinite concentration and power), DNP enhancement” value in data set [5] (blood, 37° C.) was 192; in data set [5] (plasma, 37° C.), 231. The “Relaxivity at infinite concentration and power” value in data set [5] (blood, 37° C.) was determined as 0.44 mM⁻¹ s⁻¹; in data set [5] (plasma, 37° C.), 0.32 mM⁻¹ s⁻¹. Further, the “A. (enhancement at infinite concentration and power)” value in data set [5] was 278. Further, the “2(3γe T1e)^-1, concentration dependent relaxation rate (peak-to-peak)” value is 3.6 ± 0.5 mg/mM in data set [6] (blood, 37° C.); 2.7 ± 0.5 mg/mM in data set [6] (plasma, 37° C.); 2.6 ± 0.1 mg/mM in data set [6] (setting [8]); 2.8 ± 0.2 mg/mM in data set [6] (setting [9]). In addition, the “2(3γe T2e)^-1, concentration dependent relaxation rate (peak-to-peak)” value stood at 21.5 ± 0.5 mg/mM in data set [6] (blood, 37° C.); 9.8 ± 0.5 mg/mM in data set [6] (plasma, 37° C.); 11.1 ± 0.5 mg/mM in data set [6] (setting [8]); 8.0 ± 0.2 mg/mM in data set [6] (setting [9]). The “2(3γe T1e)^-1, relaxation rate as a function of oxygen concentration (peak-to-peak)” value in data set [7] (blood, 23° C.) worked out at 250 mg/mM; in data set [7] (blood, 37° C.), 330 mg/mM; in data set [7] (water, 23° C.) it was 301 mg/mM; in data set [7] (water, 37° C.) it was 398 mg/mM. In addition, the “2(3γe T2e)^-1, relaxation rate as a function of oxygen concentration (peak-to-peak)” value came to 329 mg/mM in data set [7] (blood, 23° C.); 428 mg/mM in data set [7] (blood, 37° C.); 369 mg/mM in data set [7] (water, 23° C.); 511 mg/mM in data set [7] (water, 37° C.). Besides, the “(γe T1e +L T2e)^-1, square root of slope of the inverse DNP curve: constant term” value in data set [7] (blood, 23° C.) came to 12.9 mg/mM; in data set [7] (blood, 37° C.), 15.0 mg/mM; in data set [7] (water, 23° C.), 13.4 mg/mM; in data set [7] (water, 37° C.), 14.2 mg/mM. Besides, the “Lorentzian line broadening by oxygen” value in data set [7] (blood, 23° C.) was 329 mG/mMo2; in data set [7] (water, 23° C.), 369 mG/mMo2; in data set [7] (water, 37° C.), 511 mG/mMo2.
“Tris(8-carboxy-2,2,6,6-tetrahydroxymethylbenzo[1,2-d: 4,5-d']bis(1,3)dithiole-4-yl)methyl sodium salt [Example 14]” displayed an ESR Line width in data set [2] (1.5 mM in H2 O, 100 G) of 100 mg.
As for “Tris-(8-sodium carboxylate-2,2,6,6-tetrakis-(^2 H3 -methyl)-benzo[1,2-d:4,5-d']-bis(1,3) dithiole)methyl [symmetric trityl]”, the figures for the Relaxivity in data set [4] (23° C.) and in data set [4] (37° C.) were 0.21 mM⁻¹ s⁻¹ and 0.15 mM⁻¹ s⁻¹, respectively. In data set [5], the “A. (enhancement at infinite concentration and power)” value is reported as 266. Further, the “2(3γe T1e)^-1, concentration dependent relaxation rate (peak-to-peak)” value was determined as 13.2 ± 0.5 mg/mM in data set [6] (setting [8]) and 17.7 ± 0.8 mg/mM in data set [6] (setting [9]). In addition, the “2(3γe T2e)^-1, concentration dependent relaxation rate (peak-to-peak)” value in data set [6] (setting [8]) came to 35.4 ± 0.6 mg/mM; in data set [6] (setting [9]), 33.1 ± 0.3 mg/mM.
